One compound from patent US7473708B2, “Agents with leukotriene B4-like antiviral (enveloped RNA) activities” (priority 1996, dated 2009) can be followed below.

Data set [1] has as its system EBV. Put plainly: EBV-induced tumor formation in SCID mice given human PBL.
In data set [2] the test system is EBV. Put plainly: Synthesis of EBV particles in B95-8 cells. The settings on record: for inhibition of production of EBV particles (decrease of EBNA antigen positive cells): 14 days.
Method: In order to evaluate the effects of LTB4 on the production of newly synthesized viral particles, B95-8 cells, in which EBV replicates, was cultured in the presence or absence of LTB4 (to the concentrations indicated in FIG. 3 at days 0, 5 and 10) during 14 days. The cells were grown in RPMI-1640 medium supplemented with 10% heat inactivated fetal bovine serum (FBS) . […] Viral titers were measured by ACIF test on PBMC and expressed in transforming units per ml (TFU/ml). PBMC were then infected with these different EBV preparations and the presence of EBNA was assessed by immunofluorescence (ACIF test).
In a further data set the test system is HIV-1. Put plainly: Synthesis of HIV-1 particles in J1.1 cells (end-point titration, TCID50). The settings on record: for percentage of inhibition of HIV-1 particles synthesis: 48 hours. The format is cell-based. As for the experimental part: This set of experiments was carried out with the J1.1 cell line, a latently […] cell line derived from the parental cell line Jurkat E6.1. J1.1 cells were resuspended at a density of 10^6 cells/ml in culture medium (RPMI-1640 supplemented with 10% FBS) and were stimulated with the phorbol ester PM-A (20 ng/ml) in the absence or the presence of increasing concentrations of LTB4 (0,30, 100 nM). LTB4 was again added (to the same concentrations) 24 hours after the initiation of the cultures.
End-point titration was carried out in flat-bottom microtiter wells using four parallel series of ten-fold dilutions of cell-free supernatants. After 5 to 7 days of incubation with MT-4 cells, cell-free supernatants were harvested and tested for the major viral core p24 protein by a commercially available enzymatic assay. The TCID50 was calculated by the method of Reed and Muench.

The next data set has as its system HIV-1IIIB. Put plainly: Reverse transcriptase activity in HIV-1-infected PBMC. The settings on record: LTB4 in culture media (100 nM elsewhere in the source), two weeks of culture. The format is cell-based, human. As for the experimental part: PBMC were resuspended at a density of 10^6 cells/ml in culture medium (RPMI-1640 supplemented with 10% FBS), and cultured in the presence of 3 μg/ml PHA-P (Sigma, St.Louis, Mo.) and 30 U/ml of recombinant human IL-2 for 2 to 3 days at 37° C. under a 5% CO2 atmosphere. PHA-stimulated PBMC were resuspended at 1×10^6 cells/ml and were infected with HIV-1IIIB (various multiplicity of infection: number of infectious virus particles/target cell) in the absence or the presence of increasing concentrations of LTB4 (0, 30, 100, and 200 nM). The culture media were changed twice a week and appropriate amounts of LTB4 were added at every medium change. […] Virus replication was monitored either by reverse transcriptase or p24 assays. […]
Enzymatic activity was measured with 50 μl of cell-free supernatant to which 10 μl of a solution A (5 mM dithiothreitol, 50 mM KCl, 0.05% Triton X-100) and 40 μl of a solution B (5 mM MgCl2, […], 0.04 mg of poly(rA)-oligo(dT)12-18, […] [^3H]TTP (40 to 70 Ci/mmol) had been added. After incubation for 1 hour at 37° C., samples were precipitated with one volume of a solution containing 0.15% pyrophosphate and 1.66% trichloroacetic acid prior filtration onto glass fiber filters by using a cell harvester system. The filters were dried and radioactivity was measured in a liquid scintillation counter (1205/1204 BS Beta-plate; Wallac Oy, Turku, Finland). […]

The test system of the next data set is EBV, strain B95-8. Description: EBV-induced clump formation in peripheral blood mononuclear cells. Format: cell-based, human. As to conditions: EBV-infected PBMC, ten to twelve days of culture. As for the experimental part:
Peripheral blood mononuclear cells (PBMC) were obtained from healthy donors after dextran sedimentation and centrifugation on Ficoll-Paque™ gradients as previously described by Boyum A. (Scand. J. Immunol., 1976, 5(5):9). […] When indicated, EBV-infected PBMC were simultaneously treated (single addition) with different concentrations of LTB4, i.e. 0.3, 3.0 and 30 nM, respectively. […] Cells were cultured in microplates and the clumps were counted in each well. […] NS: nonstimulated cells.

Where [3] appears, read: EBV-infected, LTB4 i.p. 10 then 5 μg/mouse, day 42.

Several values for one entry are separate records, joined by “and”; a condition that tells them apart may be missing. Identical values can stand only once.

Turning to `CCCCC/C=C\C[C@@H](O)/C=C/C=C/C=C\[C@@H](O)CCCC(=O)O` [LTB4, 5S,12R-dihydroxy-6,8,10,14 (Z,E,E,Z)-eicosatetraenoic acid], in the data set with EBV [1] (setting [3]), the “Splenomegaly: Enlarged (mice affected / mice in group)” value was 6/9, the “Splenomegaly: Normal (mice affected / mice in group)” value is given as 1/9, the “Splenomegaly: Very enlarged (mice affected / mice in group)” value is listed as 2/9 and the “Tumor size 800-1500 mm^3 (mice affected / mice in group)” value was 3/9. In addition, in the data set with EBV [1] (setting [3]), the “Tumor size <800 mm^3 (mice affected / mice in group)” value was 6/9 and the “Tumor size >1500 mm^3 (mice affected / mice in group)” value was 0/9. Besides, the “tumor growth induced by EBV” value with EBV [1] (SCID mice, 42 days) is on record as “reduces tumor growth induced by EBV”. Moreover, the “behaviour and survival of uninfected mice treated with LTB4 alone” value in the data set with EBV [1] (uninfected SCID mice, LTB4 i.p., 42-day period) was “behaved normally and survived throughout the 42-day period”. The “inhibition of production of EBV particles (decrease of EBNA antigen positive cells)” value in the data set with EBV [2] (30 nM LTB4, B95-8 cells) is 70%. For the same compound, in the data set with EBV [2] (100 nM LTB4, B95-8 cells), the “inhibition of production of EBV particles (decrease of EBNA antigen positive cells)” value was 85%. The “inhibition of formation of new EBV particles” value in the data set on EBV [2] (B95-8 cells, concentration not stated (summary)) is over 80%. Moreover, the “percentage of inhibition of HIV-1 particles synthesis” value in the data set with HIV-1 (LTB4 30 nM) is 49% and 50% and 56%. In addition, the “percentage of inhibition of HIV-1 particles synthesis” value in the data set with HIV-1 (LTB4 100 nM) is 55% and 61% and 79%. Moreover, the “inhibition of formation of new HIV-1 particles” value in the data set with HIV-1 (concentration not stated (summary)) is given as over 55%. Moreover, the “reduction of reverse transcriptase (viral) activity” value in the data set with HIV-1IIIB is “more than 70%”. Further, the formation of clumps entry in the data set on EBV, strain B95-8 is “markedly affected the formation of clumps”.
